Experimental data published in patent publication US20060252807A1, “Novel ortho-terphenyl inhibitors of p38 kinase and methods of treating inflammatory disorders” (Kalypsys, Inc., priority 2005, published 2006).

The molecules below were run against T1, active p38 alpha enzyme (Upstate Biotechnology) (Homo sapiens, UniProt Q16539) (assay: p38α biochemical assay (ATP turnover, luminescent detection, Cambrex PKlight)). Conditions: p38α biochemical assay, Table 1 Biological Activity.
T1 construct: purchased Upstate Biotechnology
Procedure, shortened: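 In this kinase reaction, p38α used MapkapK2 as phosphorylation substrate at low ATP (1.4 uM final) over 2 hours at 30C, and activity was followed as ATP turnover by luminescence.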

T1 sequence (Q16539 whole entry): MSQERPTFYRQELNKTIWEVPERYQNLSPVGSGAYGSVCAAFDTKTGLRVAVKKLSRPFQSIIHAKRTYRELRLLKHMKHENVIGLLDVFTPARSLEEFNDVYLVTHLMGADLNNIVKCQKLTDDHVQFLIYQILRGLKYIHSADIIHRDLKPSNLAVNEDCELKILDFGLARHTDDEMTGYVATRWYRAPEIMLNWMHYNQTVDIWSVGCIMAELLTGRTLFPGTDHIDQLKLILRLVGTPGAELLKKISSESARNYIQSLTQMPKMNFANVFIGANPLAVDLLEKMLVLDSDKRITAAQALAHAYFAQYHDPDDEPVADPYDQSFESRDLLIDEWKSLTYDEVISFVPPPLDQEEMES

IC50	Structure (SMILES)
> 1000 nM	CC(C)NC(=O)c1csc(-c2oc(CN3CCN(C(=O)c4ccc(C(F)(F)F)cc4[N+](=O)[O-])CC3)nc2-c2ccc(F)cc2)n1 [Example 556]
> 1000 nM	CC(C)NC(=O)c1csc(-c2oc(CN3CCN(C(=O)c4cc(Br)ccc4Cl)CC3)nc2-c2ccc(F)cc2)n1 [Example 557]
> 1000 nM	CC(C)NC(=O)c1csc(-c2oc(CN3CCN(C(=O)c4ccc(Cl)c(Br)c4)CC3)nc2-c2ccc(F)cc2)n1 [Example 558]
> 1000 nM	CC(C)NC(=O)c1csc(-c2oc(CN3CCN(C(=O)c4ccccc4C(=O)c4ccc(O)cc4)CC3)nc2-c2ccc(F)cc2)n1 [Example 559]
> 1000 nM	CC(C)NC(=O)c1csc(-c2oc(CN3CCN(C(=O)c4ccccc4C(=O)c4ccc(F)cc4)CC3)nc2-c2ccc(F)cc2)n1 [Example 560]
> 1000 nM	CC(C)NC(=O)c1csc(-c2oc(CN3CCN(C(=O)C(C)c4ccc(-c5ccccc5)c(F)c4)CC3)nc2-c2ccc(F)cc2)n1 (centres unmarked) [Example 561]
> 1000 nM	CC(C)NC(=O)c1csc(-c2oc(CN3CCN(C(=O)C4CCCN4C(=O)OCc4ccccc4)CC3)nc2-c2ccc(F)cc2)n1 (centres unmarked) [Example 564]
> 1000 nM	CCC(C)C(NC(=O)OC(C)(C)C)C(=O)N1CCN(Cc2nc(-c3ccc(F)cc3)c(-c3nc(C(=O)NC(C)C)cs3)o2)CC1 (centres unmarked) [Example 565]
> 1000 nM	CC(C)CC(NC(=O)OC(C)(C)C)C(=O)N1CCN(Cc2nc(-c3ccc(F)cc3)c(-c3nc(C(=O)NC(C)C)cs3)o2)CC1 (centres unmarked) [Example 566]
> 1000 nM	CC(C)NC(=O)c1csc(-c2oc(CN3CCN(C(=O)C(C)c4cccc(C(=O)c5ccccc5)c4)CC3)nc2-c2ccc(F)cc2)n1 (centres unmarked) [Example 567]
> 1000 nM	CC(C)NC(=O)c1csc(-c2oc(CN3CCN(C(=O)C(Cc4ccccc4)NC(=O)OC(C)(C)C)CC3)nc2-c2ccc(F)cc2)n1 (centres unmarked) [Example 568]
> 1000 nM	CC(C)NC(=O)c1csc(-c2oc(CN3CCN(C(=O)C(Cc4ccccn4)NC(=O)OC(C)(C)C)CC3)nc2-c2ccc(F)cc2)n1 (centres unmarked) [Example 569]
> 1000 nM	CC(C)NC(=O)c1csc(-c2oc(CN3CCN(C(=O)C4Cc5ccccc5CN4C(=O)OC(C)(C)C)CC3)nc2-c2ccc(F)cc2)n1 (centres unmarked) [Example 570]
≤ 1000 nM	CC(C)NC(=O)c1csc(-c2oc(CN3CCN(C(=O)C(Cc4ccc(O)cc4)NC(=O)OC(C)(C)C)CC3)nc2-c2ccc(F)cc2)n1 (centres unmarked) [Example 571]
> 1000 nM	CC(C)NC(=O)c1csc(-c2oc(CN3CCNCC3)nc2-c2ccc(F)cc2)n1 [Example 572]
> 1000 nM	CC(=O)NCc1onc(-c2ccc(F)cc2)c1-c1nc(C(=O)NC(C)C)cs1 [Example 573]
> 1000 nM	CC(C)NC(=O)c1csc(-c2c(-c3ccc(F)cc3)noc2CNC(=O)C=O)n1 [Example 574]
≤ 1000 nM	CC(C)NC(=O)c1csc(-c2c(-c3ccc(F)cc3)noc2CNC(=O)CC#N)n1 [Example 575]
> 1000 nM	CC(C)NC(=O)c1csc(-c2c(-c3ccc(F)cc3)noc2CNC(=O)C(C)O)n1 (centres unmarked) [Example 576]
> 1000 nM	CCC(=O)C(=O)NCc1onc(-c2ccc(F)cc2)c1-c1nc(C(=O)NC(C)C)cs1 [Example 577]
> 1000 nM	CC(C)NC(=O)c1csc(-c2c(-c3ccc(F)cc3)noc2CNC(=O)C(C)(C)C)n1 [Example 578]
> 1000 nM	CC(C)CC(=O)NCc1onc(-c2ccc(F)cc2)c1-c1nc(C(=O)NC(C)C)cs1 [Example 579]
> 1000 nM	CC(C)NC(=O)c1csc(-c2c(-c3ccc(F)cc3)noc2CNC(=O)c2cnc[nH]2)n1 [Example 580]
> 1000 nM	CC(C)NC(=O)c1csc(-c2c(-c3ccc(F)cc3)noc2CNC(=O)c2ncc[nH]2)n1 [Example 581]

IC50	Structure (SMILES)
> 1000 nM	CC(C)NC(=O)c1csc(-c2c(-c3ccc(F)cc3)noc2CNC(=O)C2=CCCC2)n1 [Example 582]
≤ 1000 nM	CC(C)NC(=O)c1csc(-c2c(-c3ccc(F)cc3)noc2CNC(=O)C(F)(F)F)n1 [Example 583]
> 1000 nM	CC(C)NC(=O)c1csc(-c2c(-c3ccc(F)cc3)noc2CNC(=O)C2CCCO2)n1 (centres unmarked) [Example 584]
> 1000 nM	CC(=O)NCC(=O)NCc1onc(-c2ccc(F)cc2)c1-c1nc(C(=O)NC(C)C)cs1 [Example 585]
> 1000 nM	CC(C)NC(=O)c1csc(-c2c(-c3ccc(F)cc3)noc2CNC(=O)c2ccccc2)n1 [Example 586]
> 1000 nM	CC(C)NC(=O)c1csc(-c2c(-c3ccc(F)cc3)noc2CNC(=O)c2cccnc2)n1 [Example 587]
> 1000 nM	CC(C)NC(=O)c1csc(-c2c(-c3ccc(F)cc3)noc2CNC(=O)c2ccncc2)n1 [Example 588]
> 1000 nM	CC(C)NC(=O)c1csc(-c2c(-c3ccc(F)cc3)noc2CNC(=O)c2ccccn2)n1 [Example 589]
≤ 1000 nM	CC(C)NC(=O)c1csc(-c2c(-c3ccc(F)cc3)noc2CNC(=O)C(O)CCl)n1 (centres unmarked) [Example 590]
> 1000 nM	Cc1cc(C(=O)NCc2onc(-c3ccc(F)cc3)c2-c2nc(C(=O)NC(C)C)cs2)n[nH]1 [Example 591]
> 1000 nM	CC(C)NC(=O)c1csc(-c2c(-c3ccc(F)cc3)noc2CNC(=O)c2cn(C)cn2)n1 [Example 592]
> 1000 nM	CC(C)NC(=O)c1csc(-c2c(-c3ccc(F)cc3)noc2CNC(=O)C2CCCCC2)n1 [Example 593]
> 1000 nM	CC(C)NC(=O)c1csc(-c2c(-c3ccc(F)cc3)noc2CNC(=O)c2cscn2)n1 [Example 594]
> 1000 nM	CCOC(=O)CC(=O)NCc1onc(-c2ccc(F)cc2)c1-c1nc(C(=O)NC(C)C)cs1 [Example 595]
> 1000 nM	Cc1cccc(C(=O)NCc2onc(-c3ccc(F)cc3)c2-c2nc(C(=O)NC(C)C)cs2)c1 [Example 596]
> 1000 nM	Cc1ccccc1C(=O)NCc1onc(-c2ccc(F)cc2)c1-c1nc(C(=O)NC(C)C)cs1 [Example 597]
> 1000 nM	Cc1ccc(C(=O)NCc2onc(-c3ccc(F)cc3)c2-c2nc(C(=O)NC(C)C)cs2)cc1 [Example 598]
> 1000 nM	CC(C)NC(=O)c1csc(-c2c(-c3ccc(F)cc3)noc2CNC(=O)c2cccc(O)c2)n1 [Example 599]
> 1000 nM	CC(C)NC(=O)c1csc(-c2c(-c3ccc(F)cc3)noc2CNC(=O)c2ccccc2O)n1 [Example 600]
> 1000 nM	CC(C)NC(=O)c1csc(-c2c(-c3ccc(F)cc3)noc2CNC(=O)c2ccc(F)cc2)n1 [Example 601]
> 1000 nM	CC(C)NC(=O)c1csc(-c2c(-c3ccc(F)cc3)noc2CNC(=O)c2cccc(F)c2)n1 [Example 602]
> 1000 nM	CCCCCCCC(=O)NCc1onc(-c2ccc(F)cc2)c1-c1nc(C(=O)NC(C)C)cs1 [Example 603]
> 1000 nM	CC(C)NC(=O)c1csc(-c2c(-c3ccc(F)cc3)noc2CNC(=O)c2ccc(C#N)cc2)n1 [Example 604]
> 1000 nM	CC(C)NC(=O)c1csc(-c2c(-c3ccc(F)cc3)noc2CNC(=O)c2cccc(C#N)c2)n1 [Example 605]

IC50	Structure (SMILES)
> 1000 nM	CC(C)NC(=O)c1csc(-c2c(-c3ccc(F)cc3)noc2CNC(=O)/C=C/c2ccccc2)n1 [Example 606]
> 1000 nM	CC(C)NC(=O)c1csc(-c2c(-c3ccc(F)cc3)noc2CNC(=O)c2ccccc2C=O)n1 [Example 607]
> 1000 nM	CC(C)NC(=O)c1csc(-c2c(-c3ccc(F)cc3)noc2CNC(=O)c2ccc(C=O)cc2)n1 [Example 608]
> 1000 nM	Cc1ccc(C(=O)NCc2onc(-c3ccc(F)cc3)c2-c2nc(C(=O)NC(C)C)cs2)c(C)c1 [Example 609]
> 1000 nM	Cc1ccccc1CC(=O)NCc1onc(-c2ccc(F)cc2)c1-c1nc(C(=O)NC(C)C)cs1 [Example 610]
> 1000 nM	Cc1cccc(C(=O)NCc2onc(-c3ccc(F)cc3)c2-c2nc(C(=O)NC(C)C)cs2)c1C [Example 611]
> 1000 nM	Cc1ccc(C)c(C(=O)NCc2onc(-c3ccc(F)cc3)c2-c2nc(C(=O)NC(C)C)cs2)c1 [Example 612]
> 1000 nM	Cc1cc(C)cc(C(=O)NCc2onc(-c3ccc(F)cc3)c2-c2nc(C(=O)NC(C)C)cs2)c1 [Example 613]
> 1000 nM	Cc1ccc(C(=O)NCc2onc(-c3ccc(F)cc3)c2-c2nc(C(=O)NC(C)C)cs2)cc1C [Example 614]
> 1000 nM	CCc1ccc(C(=O)NCc2onc(-c3ccc(F)cc3)c2-c2nc(C(=O)NC(C)C)cs2)cc1 [Example 615]
> 1000 nM	COc1ccc(C(=O)NCc2onc(-c3ccc(F)cc3)c2-c2nc(C(=O)NC(C)C)cs2)cc1 [Example 616]
> 1000 nM	Cc1cccc(C(=O)NCc2onc(-c3ccc(F)cc3)c2-c2nc(C(=O)NC(C)C)cs2)c1O [Example 617]
> 1000 nM	CC(C)NC(=O)c1csc(-c2c(-c3ccc(F)cc3)noc2CNC(=O)Cc2ccccc2O)n1 [Example 618]
≤ 1000 nM	CC(C)NC(=O)c1csc(-c2c(-c3ccc(F)cc3)noc2CNC(=O)Cc2cccc(O)c2)n1 [Example 619]
> 1000 nM	Cc1ccc(O)c(C(=O)NCc2onc(-c3ccc(F)cc3)c2-c2nc(C(=O)NC(C)C)cs2)c1 [Example 620]
> 1000 nM	CC(C)NC(=O)c1csc(-c2c(-c3ccc(F)cc3)noc2CNC(=O)c2cc(O)ccc2O)n1 [Example 621]
> 1000 nM	CC(C)NC(=O)c1csc(-c2c(-c3ccc(F)cc3)noc2CNC(=O)c2cccc(O)c2O)n1 [Example 622]
> 1000 nM	CC(C)NC(=O)c1csc(-c2c(-c3ccc(F)cc3)noc2CNC(=O)c2ccc(O)cc2O)n1 [Example 623]
> 1000 nM	Cc1ccc(C(=O)NCc2onc(-c3ccc(F)cc3)c2-c2nc(C(=O)NC(C)C)cs2)cc1F [Example 624]
> 1000 nM	Cc1ccc(F)cc1C(=O)NCc1onc(-c2ccc(F)cc2)c1-c1nc(C(=O)NC(C)C)cs1 [Example 625]
> 1000 nM	CC(C)NC(=O)c1csc(-c2c(-c3ccc(F)cc3)noc2CNC(=O)c2ccccc2Cl)n1 [Example 626]
> 1000 nM	CC(C)NC(=O)c1csc(-c2c(-c3ccc(F)cc3)noc2CNC(=O)c2ccc(Cl)nc2)n1 [Example 627]
> 1000 nM	CC(C)NC(=O)c1csc(-c2c(-c3ccc(F)cc3)noc2CNC(=O)c2cccnc2Cl)n1 [Example 628]
